# Laboratory results: patent US9867814B2, “Use of non-peptidic NK1 receptor antagonists for the production of apoptosis in tumour cells” (NK-1 IP LIMITED, priority 2004, dated 2018)
# Legend:
# Type in all cases: cell-based, human
# [1] = tested on: CA-46; assay: MTS cell proliferation assay, Burkitt's lymphoma line CA-46; settings: CA-46 cells
# Description: Cellular lines related with Burkitt's human lymphoma The cellular line of Burkitt's human lymphoma was used with CA-46 (DSMZ).
# This cellular line was maintained in a culture of RPMI 1640 supplemented with 10% fetal bovine serum according to the established cellular culture conditions of the ATCC.
# The cellular lines were cultivated in flasks of 75 ml (Falcon, Germany). Half was renewed every two days and the cells were treated with Trypsin (0.05% and 0.02% EDTA […]) every six days. The cells were incubated at 37 C in a humidification of (95% air/5% CO2). […]
# (§1) The cell proliferation was evaluated using the MTS method [3-(4,5-dimethylthiazol-2-il)-5-(3-carboxymethoxyphenyl) 2-(4-sulfophenyl)-2H-tetrazolium], following the instructions of use by the manufacturer (CellTiter 96 Aqueous One Solution Cell Proliferation Assay, Promega, USA).
# The cells were quantified and cultured in plates of 96 wells each. […]
# In T0, 20 μL of MTS was immediately added to the wells and they were read 90 minutes later. […]
# To study the proliferation of the cells 20 µl of reactive MTS was added to each well (T1, T2) 90 min before reading the samples with the plate reader (TECAN Spectra Classic) at 492 nm. The quantity of reactive MTS was measured by optical density, being directly proportional in number of live cells. […]
# [2] = tested on: COLO-677; assay: MTS cell proliferation assay, small cell lung cancer line COLO-677; settings: COLO-677 cells
# Description: Cellular lines related with small cell lung cancer COLO-677 (DSMZ) was used. This cellular line was maintained in a culture of RPMI 1640 supplemented with 10% fetal bovine serum according to the established cellular culture conditions of the ATCC.
# (§2) The cellular line was cultivated in flasks of 75 ml (Falcon, Germany). Half were renewed every two days and the cells were treated with Trypsin (0.05% and 0.02% EDTA without Ca2+ and Mg2+) every six days. The cells were incubated at a temperature of 37 C in a humidification of (95% air/5% CO2). […]
# as §1
# (§3) During the experiment, the cultivated cells were broken apart every 4-5 days by way of trypsinization and to test the cell viability the blue trypan method was used. The cells were quantified and cultured in plates of 96 wells each. […]
# In T0, 20 μl of MTS was immediately added to the wells and they were read 90 minutes later. […]
# To study the proliferation of the cells 20 μL of MTS reactor was added to each well (T1, T2) 90 min., before reading the samples with the plate reader (TECAN Spectra Classic) at 492 nm. […]
# [3] = tested on: A-204; assay: MTS cell proliferation assay, rhabdomyosarcoma line A-204; settings: A-204 cells
# Description: Cellular Lines Related to Human Rhabdomyosarcoma A-204 (DSMZ) were Used.
# This cellular line was maintained in a culture of Mc-Co-supplemented with 10% fetal bovine serum according to the established cellular culture conditions of the ATCC.
# as §2
# The cell proliferation was evaluated using the MTS method [3-(4,5-dimethylthiazol-2il)-5-(3-carboxymethoxyphenyl) 2-(4-sulfophenyl)-2H-tetrazolium], following the instructions of use by the manufacturer (CellTiter 96 Aqueous One Solution Cell Proliferation Assay, Promega, USA).
# as §3
# In T0, 20 μl of MTS was immediately added to the wells and were read 90 minutes later. […]
# To study the proliferation of the cells 20 μl of MTS reactor was added to each well (T1, T2) 90 min., before reading the samples with the plate reader (TECAN Spectra Classic) at 492 nm. […]
smiles,measurement,setting,value
"FC(F)(F)c1cc(CO[C@H]2CCCN[C@H]2c2ccccc2)cc(C(F)(F)F)c1 [L-733,060, (2S,3S) 3-([3,5-Bis(trifluoromethyl)phenyl]metoxi)-2-phenylpiperidine]",cellular growth,"[1]; at the highest concentrations (2.5 μM to 25 μM tested), 35 hrs. and 72 hrs. incubation",inhibition in cellular growth was produced
same,apoptosis,[1]; at the maximum dose (2.5 μM to 25 μM tested),apoptosis
same,cellular growth,"[2]; at the highest concentrations (5 μM to 20 μM tested), 40 hrs. and 96 hrs. incubation",Cellular growth is inhibited
same,apoptosis,[2]; at the maximum dose (5 μM to 20 μM tested),apoptosis
same,cellular growth,"[3]; at the highest concentrations (2.5 μM to 20 μM tested), 36 hrs. and 72 hrs. incubation",Cellular growth is inhibited
same,apoptosis,[3]; at the maximum dose (2.5 μM to 20 μM tested),apoptosis
